Test results reported in the supplement of paper PMC10307832.

Assays:
Assay in all cases: relative viability (nuclei count vs DMSO), 5 days (fraction); higher = more cells survive
Neratinib + Luminespib = compound: CCOc1cc2ncc(C#N)c(Nc3ccc(OCc4ccccn4)c(Cl)c3)c2cc1NC(=O)/C=C/CN(C)C [Neratinib] + CCNC(=O)c1noc(-c2cc(C(C)C)c(O)cc2O)c1-c1ccc(CN2CCOCC2)cc1 [Luminespib] (partner 0.01 µM)
In short: (§1)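 The day after seeding in 1536-well plates, lung cancer cell lines were treated by pin tool with a single drug, or with a fixed anchor-drug dose together with five library-drug doses (not always all listed) in √10 steps. After 5 days, a combined fix-and-stain solution (final 0.05% Triton X-100, 1% formaldehyde, 1 ug/ml Hoechst) was added. Nuclei counted on 4× images gave relative viability as treated counts over vehicle counts, reported as the median of duplicate plates.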

Neratinib + Bortezomib = compound: CCOc1cc2ncc(C#N)c(Nc3ccc(OCc4ccccn4)c(Cl)c3)c2cc1NC(=O)/C=C/CN(C)C [Neratinib] + CC(C)C[C@H](NC(=O)[C@H](Cc1ccccc1)NC(=O)c1cnccn1)B(O)O [Bortezomib] (partner 0.002 µM)
In short: as §1

Neratinib + Navitoclax = compound: CCOc1cc2ncc(C#N)c(Nc3ccc(OCc4ccccn4)c(Cl)c3)c2cc1NC(=O)/C=C/CN(C)C [Neratinib] + CC1(C)CCC(c2ccc(Cl)cc2)=C(CN2CCN(c3ccc(C(=O)NS(=O)(=O)c4ccc(N[C@H](CCN5CCOCC5)CSc5ccccc5)c(S(=O)(=O)C(F)(F)F)c4)cc3)CC2)C1 [Navitoclax] (partner 0.5 µM)
In short: as §1

Neratinib + Dasatinib = compound: CCOc1cc2ncc(C#N)c(Nc3ccc(OCc4ccccn4)c(Cl)c3)c2cc1NC(=O)/C=C/CN(C)C [Neratinib] + Cc1nc(Nc2ncc(C(=O)Nc3c(C)cccc3Cl)s2)cc(N2CCN(CCO)CC2)n1 [Dasatinib] (partner 0.075 µM)
In short: as §1

Row | Cell Line | relative viability (Neratinib + Luminespib; first compound 0.01 µM) | relative viability (Neratinib + Luminespib; first compound 0.03162 µM) | relative viability (Neratinib + Luminespib; first compound 0.1 µM) | relative viability (Neratinib + Luminespib; first compound 0.3162 µM) | relative viability (Neratinib + Luminespib; first compound 1 µM) | relative viability (Neratinib + Bortezomib; first compound 0.01 µM) | relative viability (Neratinib + Bortezomib; first compound 0.03162 µM) | relative viability (Neratinib + Bortezomib; first compound 0.1 µM) | relative viability (Neratinib + Bortezomib; first compound 0.3162 µM) | relative viability (Neratinib + Bortezomib; first compound 1 µM) | relative viability (Neratinib + Navitoclax; first compound 0.03162 µM) | relative viability (Neratinib + Navitoclax; first compound 0.1 µM) | relative viability (Neratinib + Navitoclax; first compound 0.3162 µM) | relative viability (Neratinib + Navitoclax; first compound 1 µM) | relative viability (Neratinib + Dasatinib; first compound 0.01 µM) | relative viability (Neratinib + Dasatinib; first compound 0.03162 µM) | relative viability (Neratinib + Dasatinib; first compound 0.1 µM) | relative viability (Neratinib + Dasatinib; first compound 0.3162 µM) | relative viability (Neratinib + Dasatinib; first compound 1 µM) | relative viability (Neratinib + Navitoclax; first compound 0.01 µM)
1 | LU99A | 0.268 | 0.19 | 0.231 | 0.333 | 0.22 | 1.11 | 1.18 | 0.762 | 0.927 | 0.413 | 0.881 | 0.708 | 0.799 | 0.359 | 0.636 | 0.352 | 0.551 | 0.51 | 0.278 | –
2 | LXF-289 | 0.726 | 0.805 | – | 0.695 | 0.453 | 1.02 | 0.998 | 0.93 | 1.03 | 0.975 | 0.972 | 0.923 | – | 0.878 | 0.186 | 0.234 | 0.162 | 0.21 | 0.188 | 0.975
3 | NCI-H23 | 0.201 | 0.231 | 0.203 | 0.225 | 0.204 | 0.964 | 1.31 | 1.07 | 1.13 | 0.821 | 1.12 | 0.694 | 0.838 | 0.528 | 0.695 | 0.876 | 0.779 | 0.825 | 0.537 | 0.745
4 | NCI-H322M | 0.852 | 0.796 | 0.701 | 0.392 | 0.352 | 1.15 | 1.2 | 1.1 | 0.809 | 0.36 | 1.17 | 0.558 | 0.701 | 0.627 | 0.24 | 0.237 | 0.237 | 0.228 | 0.293 | 1.18
5 | NCI-H441 | 0.415 | 0.413 | 0.423 | 0.304 | 0.16 | 0.661 | 0.381 | 0.372 | 0.54 | 0.265 | 0.571 | 0.707 | 0.624 | 0.173 | 0.696 | 0.488 | 0.611 | 0.305 | 0.175 | 0.767
6 | NCI-H460 | 0.0344 | 0.0284 | 0.0244 | 0.0268 | 0.0188 | 1.22 | 1.36 | – | 1.27 | 0.587 | 1.3 | – | 1.11 | 0.441 | 0.524 | 0.527 | 0.446 | 0.455 | 0.317 | 1.37
7 | NCI-H520 | 0.244 | 0.207 | 0.231 | 0.214 | 0.228 | 0.468 | 0.788 | 0.448 | 0.426 | 0.31 | 1.42 | 0.965 | 1.03 | 0.779 | 0.212 | 0.199 | 0.228 | 0.171 | 0.147 | 1.1
8 | NCI-H596 | 1.04 | 1.04 | 1.02 | 1.02 | 0.758 | – | 1.32 | 1.12 | 1.08 | 0.843 | 1.01 | 0.954 | 1.04 | 0.787 | – | 0.659 | 0.749 | 0.5 | 0.436 | 0.998
9 | NCI-H647 | 0.308 | 0.128 | 0.0778 | 0.153 | 0.118 | – | 0.914 | 0.586 | 0.558 | 0.664 | 1.41 | 1.05 | 1.12 | 0.383 | 0.171 | 0.198 | 0.207 | 0.129 | 0.0912 | 1.14
10 | NCI-H727 | 0.382 | 0.337 | 0.328 | 0.312 | 0.352 | 0.961 | 0.914 | – | 0.893 | 0.536 | 0.443 | – | 0.4 | 0.267 | 0.36 | 0.359 | 0.335 | 0.333 | 0.225 | 0.446
11 | NCI-H838 | 0.252 | 0.269 | 0.258 | 0.22 | 0.21 | 0.921 | 1.12 | 0.729 | 0.627 | 0.328 | 1.22 | 0.972 | 0.995 | 0.588 | 0.272 | 0.255 | 0.278 | 0.287 | 0.267 | 1.21
12 | NCI-H1355 | 0.709 | 0.821 | 0.725 | 0.6 | 0.465 | 1.23 | 1.3 | 1.16 | 1.02 | 0.752 | 1.06 | 0.825 | 0.843 | 0.618 | 0.754 | 0.745 | 0.629 | 0.584 | 0.39 | 0.912
13 | NCI-H1437 | 1.21 | 1.08 | 1 | 1.11 | 1.09 | 0.639 | – | 0.565 | 0.385 | 0.475 | 1.12 | 1.05 | 1 | 1.05 | 0.443 | 0.396 | 0.475 | 0.278 | 0.3 | 1.14
14 | NCI-H1650 | 0.201 | 0.186 | 0.204 | 0.228 | 0.203 | 0.207 | 0.201 | 0.206 | 0.228 | 0.197 | 1.35 | 1.1 | 1.07 | 1.06 | 0.309 | 0.31 | 0.307 | 0.304 | 0.376 | 1.26
15 | NCI-H1651 | 0.723 | 1.32 | 0.654 | 0.896 | 0.546 | 1.07 | 1.13 | 0.86 | 0.902 | 0.852 | 1.17 | 0.878 | 0.84 | 0.742 | 0.424 | 0.505 | 0.371 | 0.452 | 0.32 | 1.2
16 | NCI-H1666 | – | 0.951 | – | 0.752 | 0.846 | 0.894 | 0.896 | 0.767 | 0.609 | 0.662 | – | 0.685 | 0.311 | 0.347 | 0.842 | 0.887 | 0.701 | 0.581 | 0.586 | 0.971
17 | NCI-H1734 | 0.202 | 0.206 | 0.169 | 0.204 | 0.153 | 1.27 | 0.996 | 0.912 | 0.934 | 0.74 | 1.02 | 0.789 | 0.818 | 0.557 | 0.475 | 0.466 | 0.424 | 0.38 | 0.345 | 0.902
